Results: paper PMC12341765, “Microenvironment-triggered multimodal precision diagnostics” (Nature materials, 2021)

Legend:
MC26 CRC lung tumors [1] = assay: 5-FU treatment of CRC lung disease model, monitored with PRISM (urine, PET-CT); type: in vivo, BALB/c mice; details: 5-FU 15 mg/kg i.p.
Description: 5-Fluorouracil (5-FU) was purchased (Sigma-Aldrich) and prepared as previously described.[47] 5-FU or vehicle control (DMSO) was administered by intraperitoneal injection at in a 0.2 mL volume starting 1 week after cell injection for metastasis-initiation experiments. A 15 mg/kg dose per treatment was used for all experiments. […] Experimental group sizes were practically associated according to the number of mice housed per cage (n=5 mice per cage). […] Tumor-bearing mice were closely monitored and euthanized following health-check advice given by an independent veterinary scientist responsible for animal welfare. […] Reconstructed PET and CT data were quantitatively evaluated using VivoQuant software (inviCRO Inc.). […] The radioactivity uptake values within CT-drawn organs were obtained from mean voxel values within the ROI and converted to percentage injected dose (ID) and then divided by mouse weight (g) to obtain an imaging ROI-derived percentage of the injected radioactive dose per gram of tissue (%ID/g). […] The tumor (or tissue) to tissue (i.e. lung to liver) ratio was calculated by dividing the mean lung by the mean liver %ID/g values. To quantify the radioactivity in diseased tissues ex vivo, tissues were harvested after perfusion with PBS and counts were collected using a 2480 WIZARD2 gamma counter (Perkin Elmer Inc.). […]

MC26 CRC lung tumors [2] = details: mouse, in vivo
LS 174T tumors = assay: PET-CT imaging of low glucose uptake subcutaneous xenografts; design: species or system NCr nude mice; details: mouse, in vivo

| SMILES | relative lung/liver ratio of PET-CT signal, no-treatment cohort versus cohort treated with chemotherapy (MC26 CRC lung tumors [1]; two weeks of treatment, 64Cu-PRISM PET-CT) | effect on tumor progression compared with non-treated cohort (MC26 CRC lung tumors [1]; urinary reporter signal and PET imaging, after a single week) | background signal in the chest / heart accumulation on PET-CT (MC26 CRC lung tumors [2]) | tumor uptake versus background tissue (LS 174T tumors) |
| --- | --- | --- | --- | --- |
| O=c1[nH]cc(F)c(=O)[nH]1 [5-FU, 5-Fluorouracil] | over 3 times | significantly inhibited tumor progression |  |  |
| OC[C@H]1OC(O)[C@H](F)[C@@H](O)[C@@H]1O (stereo partly shown) [18F-FDG, 18F-2-deoxyfluoroglucose] |  |  | strong accumulation in the heart | indistinguishable from the background tissue |
